This note sets out measurements from patent publication US7476729B2, “Dbait and uses thereof” (Institut Curie, priority 2003, dated 2009).

One data set relates to Hep2 xenografted tumors. Nature of the data set: Radiosensitization of Hep2 (HNSCC) tumors xenografted on nude mice. On the set-up: Mean TGD: unit not given here. The data set is classed as in vivo. Here is the method:
In vivo activity of Dbait molecules in association with radiotherapy was assessed by using nude mice xenografted with human tumors by subcutaneous injection of radio-resistant cell lines (Hep2 derived from head and neck squmous cell carcinoma, HNSCC) or tumor fragments (previously obtained by subcutaneous injection of the U87 cell lines derived of glioblastoma).
Investigations were mainly carried out on the mice xenografted with radio-resistant human HNSCC tumors in order to establish proof of concept in vivo. Irradiation was performed with γ-rays from a ^137Cs source with appropriate protection of mice in order to perform localized irradiation of tumors. Typical assay condition consists of intratumoral injection of an appropriate preparation of 1 nmole Dbait molecules with transfecting agents (cationic dendrimer (Superefct, Qiagene), dioctadecylamidoglycyl-spermine (DOGS, Polyplus transfection), polyethyleneimine (PEI, Polyplus Transfection) according to manufacturer's instruction, 5 hours prior irradiation. A total dose of 30 Gy was delivered in 5 weeks: i) 3×2 Gy/week (about one every two days); ii) 5 Gy/week; iii) 15 Gy/2 weeks.
The size of tumor was measured 2-3 times a week. Treatment by irradiation and intratumoral injection of MEM medium (the Dbait dilution buffer), was used as a control of irradiation treatment without Dbait. The volume of tumor was calculated ([…], where a=length, b=width). The ratio of volume measured at t time over the initial volume (Vt/Vi) was used as indicator of tumor progression. The mice were followed up to 100 days. At least 4 independent series of six animals were tested.
MEM or Dbait32H (SEQ ID NO: 1) was delivered by intratumoral injection 5 hours prior irradiation. The fractionated irradiation dose (2 Gy) was given one of every two days, three times a week. The treatment lasted 5 weeks totaling 30 Gy irradiation. The dots represent the time course of tumor volume of each mouse. The solid lines are the best polynomial fitting.
Tumor growth was monitored during treatment and after in four groups of 10 animals with different treatments (untreated, treated with Dbait32H (SEQ ID NO: 1) alone, treated by irradiation alone, and the combined Dbait32H (SEQ ID NO: 1) and irradiation). Individual tumor growth is indicated for each animal. The treatment protocol was the same as described in FIG. 4.1. The experiment started when the volume of Hep2 tumors reached 150-200 mm^3. For each treatment session, 20 μg Dbait32H (SEQ ID NO: 1) formulated with polyethyleneimine (PEI, Polyplus Transfection, Strasbourg, France) according to the manufacturer's instruction was injected into tumor 5 hours prior 2 Gy irradiation.
For ethical reason, the animals were sacrificed when their tumors reached 2 cm^3. This end-point was used as death in survival analysis. The treatment protocol was described in FIG. 4.3. The five groups were included: untreated, mock-tranfected and irradiated, treated by combined irradiation and increasing amount of Dbait32H (SEQ ID NO: 1) (20, 60 and 120 μg/session). […] Pictures of tumors representative of the groups (untreated, treated with 20 and 60 μg Dbait32H/session associated with 2 Gy irradiation) which were taken 15 days after beginning of treatment, at the end of treatment (35 days) and 13 days after the end of treatment (35+13 days). They provided clear visual comparison of the benefit of the combined Dbait32H (SEQ ID NO: 1) and irradiation treatment.
Descriptive analyses of the tumor response were performed for each treatment and each tumor type. Day 1 was the day of the first treatment session. All the animals were followed for at least 150 days or until their ethical sacrifice. Median lifetime was estimated according to the Kaplan-Meier method. TGD was calculated by subtracting the mean tumor volume quadrupling time of the control group from tumor volume quadrupling times of individual mice in each treated group. […]

The next data set has as its system Hela cells. Kind of data set: Clonogenic survival assay of Hela cells after 4×0.5 Gy irradiation. The following applies: 4×0.5 Gy spaced 2 hours, Dbait transfected with Superfect (83 nM or 2 μg). It counts as cell-based, human. Here is the method:
Exponentially growing cells in six-well plates were harvested and incubated with […] of complete DMEM containing a mixture of Dbait molecules and Superfect reagent (Qiagen, Courtaboeuf, France) in a ratio of 10 μl Superfect per μg DNA. After 5 h at 37° C. under standard conditions, the cells were washed with PBS and complete DMEM was added. Where indicated, cells were exposed to irradiation either in one session (10 Gy) 5 h after the beginning of transfection or in four sessions of 0.5 Gy administered with a ^137Cs unit (1 Gy/min) 3, 4, 5 and 6 h after the beginning of transfection and allowed to grow for two weeks. When plasmid integration was measured, 2 μg of plasmid was added to Dbait transfection and puromycin (1.7 μg/ml) was added to the growth medium 48 h after transfection. Plasmid transfection efficiency was estimated by analyzing 10,000 cells for GFP expression on a FACScan flow cytometer (FACSalibur, Beckton-Dickinson, USA).
Upon 8 hours transfection of Dbait molecules in Hela cells and four irradiation with 0.5 Gy fractionated irradiation spaced 2 hours (4×0.5 Gy), performed with γ-rays from a ^137Cs source, a significant reduction of clonogenic survival was observed as compared to untransfected cells. The results are given on FIG. 2.1 wherein Panel A gives the dose-dependence of normalized survival clone number in the presence of Dbait32 (SEQ ID NO: 1) and Dbait32H (SEQ ID NO: 1), and Panel B, the normalized survival clone number in the presence of different Dbait molecules at 83 nM (concentration in culture medium). Cell culture was in MEM supplemented with 10% serum. Superfect (Qiagene) was used as transfection agent according to the manufacturer's instruction.
Clonogenic survival was estimated as the number of treated cells forming colonies on the number of untreated cells.

Setting [1] is: Hep2, 15 × 2 Gy, 15 × 20 μg (1 nmole).
Where [2] appears, read: Hep2, 15 × 2 Gy, 15 × 60 μg (3 nmole).
Setting [3] is: Hep2, 15 × 2 Gy, 15 × 120 μg (6 nmole).
Where [4] appears, read: Hep2, no irradiation, 15 × 20 μg (1 nmole).
[5] abbreviates: Hep2, 15 × 2 Gy, 15 × 120 μg (12 nmole).
Where [6] appears, read: Hep2, no irradiation, 15 × 120 μg (12 nmole).

Consider “Dbait32H: hairpin double strand DNA with a stem of 32-bp, hexaethyleneglycol linker, phosphorothioate at the free blunt end (DNA ACGCACGGGTGTTGGGTCGTTTGTTCGGATCT; DNA, backbone not given here; hairpin, hexaethyleneglycol loop, 3-bp phosphorothioate at free blunt end)”, for which the “radiosensitization, tumor growth (Vt/Vi)” value in the data set with Hep2 xenografted tumors (1 nmole (20 μg) intratumoral 5 hours prior irradiation, 3×2 Gy/week, 5 weeks, versus MEM+3×2 Gy) is given as “clearly showed radiosensitization”. Besides, the tumor growth entry with Hep2 xenografted tumors (20 μg with PEI intratumoral 5 hours prior 2 Gy, 15 sessions, versus irradiation or Dbait32H alone) is given as “greatly reduced”. Further, the “survival (Kaplan-Meier), dose dependence” value in the data set on Hep2 xenografted tumors (20, 60 and 120 μg/session with 2 Gy irradiation) is reported as “clear dose-dependent effect”. Also, the “Mean % TGD” value with Hep2 xenografted tumors (setting [1]) was determined as 561%; in the data set on Hep2 xenografted tumors (setting [2]), 880%; in the data set on Hep2 xenografted tumors (setting [3]), 952%; with Hep2 xenografted tumors (setting [4]), 168%. Besides, the “Mean TGD” value in the data set on Hep2 xenografted tumors (setting [1]) is listed as 49; in the data set on Hep2 xenografted tumors (setting [2]) it was >83; in the data set with Hep2 xenografted tumors (setting [3]), >91; in the data set with Hep2 xenografted tumors (setting [4]), 7. For the same substance, the “Median survival time” value is recorded as 93 days with Hep2 xenografted tumors (setting [1]), 129 days in the data set with Hep2 xenografted tumors (setting [2]), 150 days with Hep2 xenografted tumors (setting [3]) and 55 days with Hep2 xenografted tumors (setting [4]). Besides, the Relative risk stood at 0.42 in the data set with Hep2 xenografted tumors (Hep2, 15 × 2 Gy, 15 × 20 μg (1 nmole), reference C* (Mock + irradiation)); 0.28 with Hep2 xenografted tumors (Hep2, 15 × 2 Gy, 15 × 60 μg (3 nmole), reference C* (Mock + irradiation)); 0.18 in the data set on Hep2 xenografted tumors (Hep2, 15 × 2 Gy, 15 × 120 μg (6 nmole), reference C* (Mock + irradiation)); 0.62 in the data set with Hep2 xenografted tumors (Hep2, no irradiation, 15 × 20 μg (1 nmole), reference C (untreated)). Further, the “Number of cured mice” value in the data set on Hep2 xenografted tumors (setting [2]) was determined as 3; in the data set on Hep2 xenografted tumors (setting [3]) it was 4. Also, in the data set with Hep2 xenografted tumors (mid-course (7 sessions), 20 μg/session and 2 Gy/session versus irradiation alone), the “NMR imaging: necrotic area” value is given as “necrotic area was more important”. Moreover, in the data set with Hep2 xenografted tumors (mid-course treatment (7 sessions), 20 days, combined with irradiation versus irradiation alone), the “histology: necrosis and apoptosis” value is “enhancement of necrosis and apoptosis was observed”. In addition, the “radiosensitization depending on dwell time between intratumoral injection and ionizing radiation” value with Hep2 xenografted tumors (xenografted tumors on nude mice) stood at 5 hours>>1 hour. Also, the clonogenic survival result in the data set on Hela cells was “significantly reduced clonogenic survival”.
In the case of “Dbait32ss: 32-nt single strand DNA (SEQ ID NO: 1) (DNA ACGCACGGGTGTTGGGTCGTTTGTTCGGATCT; DNA, backbone not given here)”, in the data set on Hep2 xenografted tumors (setting [5]), the “Mean % TGD” value is listed as 374%, the “Mean TGD” value amounted to 29 and the “Median survival time” value worked out at 80 days. Also, the Relative risk in the data set on Hep2 xenografted tumors (Hep2, 15 × 2 Gy, 15 × 120 μg (12 nmole), reference C* (Mock + irradiation)) was determined as 0.57. Moreover, in the data set on Hep2 xenografted tumors (setting [6]), the “Mean % TGD” value is on record as 156%, the “Mean TGD” value stood at 6 and the “Median survival time” value is reported as 46 days. Besides, in the data set on Hep2 xenografted tumors (Hep2, no irradiation, 15 × 120 μg (12 nmole), reference C (untreated)), the Relative risk is on record as 0.71. For the same substance, the “in vivo activity (survival of xenografted animals)” value in the data set on Hep2 xenografted tumors (high dose (15 × 120 μg)) is “inactive”.
